{"source": "paper PMC12239253", "about": "(BMC Complementary Medicine and Therapies, 2025)", "molecular_target": "glycoprotein B (gB) (Human alphaherpesvirus 1 strain 17, UniProt P10211)", "test": "surface plasmon resonance", "type": "binding", "data": [{"compound": "C=C1CC/C=C(\\C)CC[C@@H]2[C@@H]1CC2(C)C", "note": "[BCP, β-caryophyllene]", "values": [{"measurement": "Kd", "value": 4.26, "unit": "µM"}]}]}
